Experimental data from ChEMBL document CHEMBL1129160, “Non thiazolidinedione antihyperglycaemic agents. 2: -Carbon substituted -phenylpropanoic acids1” (Bioorg Med Chem Lett, 1996).

Tests used:
Mus musculus = experiment: In vivo anti-hyperglycaemic activity in mice.; type: functional
[1] = target: T1, Peroxisome proliferator-activated receptor gamma (Homo sapiens, UniProt P37231)
T1 sequence (P37231 whole entry): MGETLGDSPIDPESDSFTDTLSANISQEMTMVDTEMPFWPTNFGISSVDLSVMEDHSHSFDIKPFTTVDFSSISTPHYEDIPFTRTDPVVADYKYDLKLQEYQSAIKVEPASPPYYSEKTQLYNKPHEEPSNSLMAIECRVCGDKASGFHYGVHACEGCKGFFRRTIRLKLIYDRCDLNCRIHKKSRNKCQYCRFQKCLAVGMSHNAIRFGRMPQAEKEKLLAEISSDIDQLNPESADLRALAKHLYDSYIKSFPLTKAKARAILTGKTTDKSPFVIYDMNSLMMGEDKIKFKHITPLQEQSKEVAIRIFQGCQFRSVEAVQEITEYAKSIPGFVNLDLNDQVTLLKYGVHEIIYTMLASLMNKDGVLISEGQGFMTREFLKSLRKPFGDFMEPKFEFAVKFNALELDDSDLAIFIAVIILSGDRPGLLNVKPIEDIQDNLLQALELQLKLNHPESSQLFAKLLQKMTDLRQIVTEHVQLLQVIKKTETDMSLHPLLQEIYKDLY

[2] = target: T1, Peroxisome proliferator-activated receptor gamma; experiment: Inhibition of [125I]SB 236636 binding to human PPAR gamma receptor

COC(=O)C(CCc1ccccc1)Cc1ccc(OCCN(C)c2nc3ccccc3o2)cc1 (centres undefined)
ED25 (Mus musculus): 100 µM/kg

COC(=O)C(Cc1ccc(OCCN(C)c2nc3ccccc3o2)cc1)C(=O)OC
ED25 (Mus musculus): 10 µM/kg

CN(CCOc1ccc(CC(CCCc2ccccc2)C(=O)O)cc1)c1nc2ccccc2o1 (centres undefined)
Ki [1]: 30 nM | ED25 (Mus musculus): 3 µM/kg

CCOC(Cc1ccc(OCCN(C)c2nc3ccccc3o2)cc1)C(=O)O (centres undefined)
ED25 (Mus musculus): 0.1 µM/kg

COCC(Cc1ccc(OCCN(C)c2nc3ccccc3o2)cc1)C(=O)O (centres undefined)
ED25 (Mus musculus): 30 µM/kg

CCC(Cc1ccc(OCCN(C)c2nc3ccccc3o2)cc1)C(=O)O (centres undefined)
ED25 (Mus musculus): 30 µM/kg

C=CCC(Cc1ccc(OCCN(C)c2nc3ccccc3o2)cc1)C(=O)O (centres undefined)
ED25 (Mus musculus): 30 µM/kg

CN(CCOc1ccc(CC(CCCCc2ccccc2)C(=O)O)cc1)c1nc2ccccc2o1 (centres undefined)
ED25 (Mus musculus): 100 µM/kg

CC(C)CCC(Cc1ccc(OCCN(C)c2nc3ccccc3o2)cc1)C(=O)O (centres undefined)
ED25 (Mus musculus): 100 µM/kg

COC(=O)C(Cc1ccc(OCCN(C)c2nc3ccccc3o2)cc1)C(C)=O (centres undefined)
ED25 (Mus musculus): 300 µM/kg

CCCCCCC(Cc1ccc(OCCN(C)c2nc3ccccc3o2)cc1)C(=O)O (centres undefined)
ED25 (Mus musculus): 10 µM/kg

CC(Cc1ccc(OCCN(C)c2nc3ccccc3o2)cc1)C(=O)O (centres undefined)
ED25 (Mus musculus): 1000 µM/kg | Ki [2]: 1500 nM

CCCC(Cc1ccc(OCCN(C)c2nc3ccccc3o2)cc1)C(=O)O (centres undefined)
ED25 (Mus musculus): 10 µM/kg

Cc1c(C)c2c(c(C)c1O)CCC(C)(COc1ccc(CC3SC(=O)NC3=O)cc1)O2 (centres undefined) [TROGLITAZONE]
ED25 (Mus musculus): 400 µM/kg

CN(CCOc1ccc(CC(CCCCCc2ccccc2)C(=O)O)cc1)c1nc2ccccc2o1 (centres undefined)
ED25 (Mus musculus): 3 µM/kg

CN(CCOc1ccc(CC(CCOc2ccccc2)C(=O)O)cc1)c1nc2ccccc2o1 (centres undefined)
ED25 (Mus musculus): 30 µM/kg

CN(CCOc1ccc(CC2SC(=O)NC2=O)cc1)c1nc2ccccc2o1 (centres undefined) [BRL-48482]
ED25 (Mus musculus): 3 µM/kg

COC(=O)C(Cc1ccccc1)Cc1ccc(OCCN(C)c2nc3ccccc3o2)cc1 (centres undefined)
ED25 (Mus musculus): 300 µM/kg

CN(CCOc1ccc(CC(C/C=C/c2ccccc2)C(=O)O)cc1)c1nc2ccccc2o1 (centres undefined)
ED25 (Mus musculus): 30 µM/kg

CN(CCOc1ccc(CC(C(=O)O)c2ccccc2)cc1)c1nc2ccccc2o1 (centres undefined)
ED25 (Mus musculus): 30 µM/kg

CCOC(=O)C(Cc1ccc(OCCN(C)c2nc3ccccc3o2)cc1)C(=O)c1ccccc1 (centres undefined)
ED25 (Mus musculus): >1000 µM/kg

CN(CCOc1ccc(CC(C#N)C(=O)O)cc1)c1nc2ccccc2o1 (centres undefined)
ED25 (Mus musculus): 10 µM/kg
